pIC50: −log10 of the molar value. Read-outs that look alike come from different tables or passages of the source.
Tests used:
OCI-Ly8 cells = assay: Cell cycle analysis (PI, Muse flow cytometer); format: cell-based, human; conditions: OCI-Ly8, 1 μM inhibitor + ^177Lu-lilotomab, versus ^177Lu-lilotomab alone
Method: Cells were harvested at 0 […], and fixed in 70% ethanol at -20° C. for at least 3 h. After staining with the Muse® Cell Cycle Assay Kit (Merck Millipore, Molsheim, France) using propidium iodide in the dark at room temperature for 30 min, cell cycle distribution was analyzed using a Muse® flow cytometer. The percentage of cells in the G0/G1, S and G2/M was calculated (mean of three experiments in triplicate) and the effect of WEE-1 and MYT-1 kinase inhibitors on the cell cycle was assessed.

SUDHL4 cells = assay: Alamar Blue cytotoxicity study; format: cell-based, human; conditions: for pIC50: Homo sapiens; for Combination Index (Chou-Talalay): 120 h
Method: Cells were incubated with 0.25, 0.5, 1, 2.5 or 5 μg/ml of Humalutin in cell culture flasks and incubated at 37° C./5% CO2. After 18-20 hours cells were washed and resuspended in fresh medium. Cell bound activity after washing was measured using a calibrated gamma detector (Cobra II auto-gamma detector, Packard Instrument Company, Meriden, Conn., USA). Cell concentration and viability was also measured after washing using Guava ViaCount Cell Dispersal Reagent for Flow Cytometry (Merck GaA, Darmstadt, Germany) and measured in a Guava EasyCyte 12HT (Merck KGaA, Darmstadt, Germany) to determine how well the cells survived the incubation. Cells were seeded in 96 well plates. […]
Cells were treated with either Humalutin, venetoclax or a combination of both and seeded into 96 well-plates. At each time point after treatment, cells were incubated with Alamar Blue (Thermo Fisher, DALL1100) for 4 hours and fluorescence measurements were performed using a multiplate reader Fluoroskan ascent FL to assess cell proliferation and viability. All experiments were done in duplicates using 2 samples in each experiment. Data were normalized to the untreated controls.
Cells were incubated with either 0, 0.5 μg/ml or 1 μg/ml Humalutin and the same procedure as described before for treatment with Humalutin alone and venetoclax alone was followed.
The Chou-Talalay model was used for synergy calculations using the Compusyn software. R (goodness of fit) was calculated for the individual treatments and should be over 0.90 in in vitro culture experiments in order to use with confidence the calculated combination index (CI). The CI is an indication of synergy: 0-0.9 is considered synergy. Synergysm grading was used as described in WO2006004917A2.
Cells were incubated with 0.25, 0.5, 1, 2.5 or 5 μg/ml of Humalutin in cell culture flasks and incubated at 37° C./5% CO2. After 18-20 hours cells were washed and resuspended in fresh medium. Cell bound activity after washing was measured using a calibrated gamma detector (Cobra II auto-gamma detector, Packard Instrument Company, Meriden, Conn., USA). Cell concentration and viability were also measured after washing using Guava ViaCount Cell Dispersal Reagent for Flow Cytometry (Merck GaA, Darmstadt, Germany) and measured in a Guava EasyCyte 12HT (Merck KGaA, Darmstadt, Germany) to determine how well the cells survived the incubation. Cells were seeded in 96 well plates. Alamar blue viability measurements were performed 120 h after seeding.
Cells were incubated with either 0 (control), 0.5 μg/ml or 1 μg/ml Humalutin for 18 to 20 hours. Cells were then washed and resuspended in fresh medium.

Compound | Proportion of cells in G2/M, inhibitor combined with ^177Lu-lilotomab (OCI-Ly8 cells) | pIC50 (SUDHL4 cells; SU-DHL-4, read-out: IC50 at 120 h, SUDHL-4, 120 h incubation after seeding) | pIC50 (SUDHL4 cells; SU-DHL-4, SUDHL4, 72 h incubation after seeding, read-out: IC50) | Combination Index (Chou-Talalay) (SUDHL4 cells; SUDHL-4, drug 10 μM + Humalutin 0.5 μg/ml) | Combination Index (Chou-Talalay) (SUDHL4 cells; SUDHL-4, drug 10 μM + Humalutin 1 μg/ml) | Combination Index (Chou-Talalay) (SUDHL4 cells; SUDHL-4, drug 40 μM + Humalutin 0.5 μg/ml) | Combination Index (Chou-Talalay) (SUDHL4 cells; SUDHL-4, drug 40 μM + Humalutin 1 μg/ml) | Combination Index (Chou-Talalay) (SUDHL4 cells; SUDHL-4, drug 80 μM + Humalutin 0.5 μg/ml) | Combination Index (Chou-Talalay) (SUDHL4 cells; SUDHL-4, drug 80 μM + Humalutin 1 μg/ml) | Combination Index (Chou-Talalay) (SUDHL4 cells; SUDHL-4, drug 100 μM + Humalutin 0.5 μg/ml) | Combination Index (Chou-Talalay) (SUDHL4 cells; SUDHL-4, drug 100 μM + Humalutin 1 μg/ml) | Combination Index (Chou-Talalay) (SUDHL4 cells; SUDHL-4, venetoclax 0.25 + Humalutin 0.5 μg/ml) | Combination Index (Chou-Talalay) (SUDHL4 cells; SUDHL-4, venetoclax 0.25 + Humalutin 1 μg/ml) | Combination Index (Chou-Talalay) (SUDHL4 cells; SUDHL-4, venetoclax 0.5 + Humalutin 0.5 μg/ml) | Combination Index (Chou-Talalay) (SUDHL4 cells; SUDHL-4, venetoclax 0.5 + Humalutin 1 μg/ml) | Combination Index (Chou-Talalay) (SUDHL4 cells; SUDHL-4, venetoclax 1 + Humalutin 0.5 μg/ml) | Combination Index (Chou-Talalay) (SUDHL4 cells; SUDHL-4, venetoclax 1 + Humalutin 1 μg/ml) | Combination Index (Chou-Talalay) (SUDHL4 cells; SUDHL-4, venetoclax 2.5 + Humalutin 0.5 μg/ml) | Combination Index (Chou-Talalay) (SUDHL4 cells; SUDHL-4, venetoclax 2.5 + Humalutin 1 μg/ml)
C=CCn1c(=O)c2cnc(Nc3ccc(N4CCN(C)CC4)cc3)nc2n1-c1cccc(C(C)(C)O)n1 [MK-1775] | reduction of the fraction of G2/M cells |  |  |  |  |  |  |  |  |  |  |  |  |  |  |  |  |  | 
CC1(C)CCC(CN2CCN(c3ccc(C(=O)NS(=O)(=O)c4ccc(NCC5CCOCC5)c([N+](=O)[O-])c4)c(Oc4cnc5[nH]ccc5c4)c3)CC2)=C(c2ccc(Cl)cc2)C1 [venetoclax] |  | 5.62 | 5.44 | 2.43 | 0.09 | 3.77 | 0.11 | 0.50 | 0.06 | 0.83 | 0.02 | 0.01 | 0.06 | 0.003 | 0.01 | 0.01 | 0.09 | 0.02 | 0.12

— patent US20210106703A1, “RADIOIMMUNOCONJUGATES IN COMBINATION WITH OTHER DRUGS AS TREATMENT AGAINST NHL” (Nordic Nanovector ASA, priority 2017, published 2021)
